# Test results taken from patent US20210132079A1, “ANTIBODY” (UCB Biopharma SRL, priority 2015, published 2021).
# Entries after “also recorded” stand apart in the source; their conditions may differ.
# What was measured:
# [1] = target: T1, soluble form of CD40L (Homo sapiens, UniProt P29965); assay: SPR on Biacore 4000 against immobilised CD40L; settings: read-out: geomean IC50 for binding against CD40L
# T1 sequence (P29965 113-261 limits assumed): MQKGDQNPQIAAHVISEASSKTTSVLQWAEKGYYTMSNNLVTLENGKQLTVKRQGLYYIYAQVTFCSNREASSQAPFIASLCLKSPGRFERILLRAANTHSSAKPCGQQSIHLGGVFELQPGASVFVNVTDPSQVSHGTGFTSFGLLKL
# Description: (§1) In another experiment, BIO8898 was tested against the immobilised soluble form of CD40L and the soluble form of TNFα by SPR on a Biacore 4000 machine.
# [2] = target: T2, soluble form of TNFα (Homo sapiens, UniProt P01375); assay: SPR on Biacore 4000 against immobilised TNFα; type: binding; settings: concentration of up to 100 μM
# T2 construct: immobilised soluble form of CD40L and the soluble form of TNFα by SPR
# T2 sequence (P01375 77-233 limits assumed): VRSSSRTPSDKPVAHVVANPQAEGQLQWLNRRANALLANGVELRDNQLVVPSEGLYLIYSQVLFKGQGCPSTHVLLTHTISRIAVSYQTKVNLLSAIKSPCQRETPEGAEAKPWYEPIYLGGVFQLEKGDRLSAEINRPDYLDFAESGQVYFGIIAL
# Description: as §1
smiles,measurement,setting,value
O=C(NCc1cccc(-c2ccccc2)c1)c1cc(-c2cc(C(=O)NC(C(=O)O)C3CCCCC3)nc(C(=O)N3CCCC3CN3CCCC3)c2)cc(C(=O)N2CCCC2CN2CCCC2)n1 (centres unmarked) [BIO8898],IC50,[1],17 µM
same,binding to TNFα,[2],found not to bind; also recorded: no binding was detected
